# Patent publication US6869791B2, “Method for sterilizing transformed cells” (Sumitomo Chemical Company, Ltd., priority 2000, dated 2005)
# Where two headings read alike, the source gives them in different places.
# Key:
# [1] = system: esterase in culture broth of E. coli JM105/pYHNK 2 strain
# Method: 0.02 g of N-benzylazetidin-2-carboxyilic acid ethyl ester, 1.0 ml t-butyl methyl ether and 3.5 ml of 100 mM monopotassium phosphate-dipotassium phosphate buffer (pH 7.0) were added in a 10 ml threaded test tube and kept at 35′ for 15 minutes. 200 μl of the esterase solution was put in the test tube to measure its esterase activity and shaken reciprocally (120 str/min) at 35° C. for 16 minutes. Then 400% 1 of the mixed solution was centrifuged (12000 rpm, 5 minutes) after 1 ml t-butyl methyl ether was added and stirred. 200 μl of the obtained aqueous phase was analyzed quantitatively (by absolute calibration curve method) with respect to N-benzylazetidin-2-carboxylic acid by high performance liquid chromatography after dissolved in 20 mM phosphate acid monopotassium water/acetonitrile=90/10 and filtered by a 0.2 μl filter.
# [2] = system: E. coli JM105/pYHNK 2 strain; type: cell-based, Escherichia coli
# [3] = system: E. coli JM105/pEAR5 strain; details: stirred 24 hours at 30° C.
# Method: (§1) Number of viable cells was determined by the following method.
# (§2) About 1 ml of a sample solution to be measured with the number of viable cells was diluted with physiological saline cooled to 4° C. 100 μl of the diluted solution was applied onto a LB-medium plate (L-Broth Ager (manufactured by BIO 101 Company, Ltd) containing ampicilline at a concentration of 100 μ/ml and kept at 37° C. for 1 to 2 days. Thereafter, number of the viable cells was calculated from the number of colonies grown thereon.
# [4] = system: E. coli JM 105/pCC160S189Y363term strain; details: stirred 24 hours at 30° C.
# Method: as §1, §2
# [5] = system: esterase derived from Arthrobacter SC-6-98-28 in culture broth of E. coli JM105/pEAR5 strain; details: stirred 24 hours at 30° C.
# Method: Measurement of the Esterase Activity in Example 13 and 14:
# To 5 ml of a diluted solution of the culture broth or sterilized solution obtained by the pre sent method was added 1 g of 2,2-dichloro-3-(1-propenyl)cyclopropane-1-carboxylic acid methyl ester (1R/1S=50/50, trans/cis98/2) and the resulting mixture was stirred at 45° C. for 30 minutes while maintaining the pH at 10.0. A portion of the reaction solution was sampled, acidified with hydrochloric acid, and extracted with ethyl acetate. The extract solution was analyzed by gas-chromatography to measure the hydrolysis rate (Internal standard: methyl cinnamate, column: HR20M 0.53 φ, 30 m, 1 μ, ULBON). The esterase activity was calculated from the hydrolysis rate.
# [6] = system: esterase derived from Chromobacterium SC-YM-1 (160S, 189Y mutant) in culture broth of E. coli JM 105/pCC160S189Y363term strain; details: stirred 24 hours at 30° C.
# Method: Measurement of the enzyme activity was performed by using p-nitrophenyl acetate (pNPA) as a substrate. A sample enzyme solution was added to a 3.0 ml of 100 mM phosphate buffer solution (pH 7.5) containing the substrate at a concentration of 5 mM and the resulting mixture is maintained at 37° C. An amount of liberated p-nitrophenol was measured by the increase of absorbance at 405 nm.
# [7] = Example 9: 40 ml culture broth + 10 ml acetone, stirred 24 hours at 30° C.
# [8] = Example 10: 40 ml culture broth + 10 ml acetone, stirred 6 hours at 30° C.
# [9] = Example 11: 40 ml culture broth + 10 ml acetone, stirred 48 hours at 30° C.
# [10] = Example 12: 40 ml culture broth + 6.5 ml acetone, stirred 24 hours at 30° C.
# [11] = Example 13: 45 g culture broth + 5 g ethanol
# [12] = Example 14: 37.5 g culture broth + 12.5 g ethanol
# [13] = Example 15: 45 g culture broth + 5 g ethanol
# [14] = Example 16: 37.5 g culture broth + 12.5 g ethanol
# [15] = Example 1: 40 ml culture broth + 10 ml ethanol, stirred 24 hours at 30° C.
# [16] = Example 2: 40 ml culture broth + 10 ml ethanol, stirred 6 hours at 30° C.
# [17] = Example 3: 40 ml culture broth + 10 ml ethanol, stirred 48 hours at 30° C.
# [18] = Example 4: 42.5 ml culture broth + 7.5 ml ethanol, stirred 24 hours at 30° C.
# [19] = Example 5: 40 ml culture broth + 10 ml methanol, stirred 24 hours at 30° C.
# [20] = Example 6: 40 ml culture broth + 10 ml methanol, stirred 6 hours at 30° C.
# [21] = Example 7: 40 ml culture broth + 10 ml methanol, stirred 48 hours at 30° C.
# [22] = Example 8: 40 ml culture broth + 10 ml methanol, stirred 5 hours at 25° C.
structure (smiles),measurement,setting,value
CC(C)=O [acetone],"esterase activity of the mixed solution, relative to culture broth (1)",[1]; [7],≥ 95%
same,"esterase activity of the mixed solution, relative to culture broth (1)",[1]; [8],≥ 95%
same,"esterase activity of the mixed solution, relative to culture broth (1)",[1]; [9],≥ 95%
same,"esterase activity of the mixed solution, relative to culture broth (1)",[1]; [10],≥ 95%
same,viable cell number,[2]; [7],0 cfu/ml
same,viable cell number,[2]; [8],0 cfu/ml
same,viable cell number,[2]; [9],0 cfu/ml
same,viable cell number,[2]; [10],0 cfu/ml
CCO [ethanol],viable cell number,[3]; [11],0 cfu/ml
same,viable cell number,[3]; [12],0 cfu/ml
same,viable cell number,[4]; [13],0 cfu/ml
same,viable cell number,[4]; [14],0 cfu/ml
same,"esterase activity of the mixed solution, relative to culture broth (1)",[1]; [15],≥ 95%
same,"esterase activity of the mixed solution, relative to culture broth (1)",[1]; [16],≥ 95%
same,"esterase activity of the mixed solution, relative to culture broth (1)",[1]; [17],≥ 95%
same,"esterase activity of the mixed solution, relative to culture broth (1)",[1]; [18],≥ 95%
same,viable cell number,[2]; [15],0 cfu/ml
same,viable cell number,[2]; [16],0 cfu/ml
same,viable cell number,[2]; [17],0 cfu/ml
same,viable cell number,[2]; [18],0 cfu/ml
same,"esterase activity of the solution, relative to culture broth (2)",[5]; [11],≥ 95%
same,"esterase activity of the solution, relative to culture broth (2)",[5]; [12],≥ 95%
same,"esterase activity of the solution, relative to culture broth (3)",[6]; [13],≥ 95%
same,"esterase activity of the solution, relative to culture broth (3)",[6]; [14],≥ 95%
CO [methanol],"esterase activity of the mixed solution, relative to culture broth (1)",[1]; [19],≥ 95%
same,"esterase activity of the mixed solution, relative to culture broth (1)",[1]; [20],≥ 95%
same,"esterase activity of the mixed solution, relative to broth solution (1)",[1]; [21],≥ 95%
same,"esterase activity of the mixed solution, relative to culture broth (1)",[1]; [22],≥ 92%
same,viable cell number,[2]; [19],0 cfu/ml
same,viable cell number,[2]; [20],0 cfu/ml
same,viable cell number,[2]; [21],0 cfu/ml
same,viable cell number,[2]; [22],0 cfu/ml
